Where no end group is shown, it is not given here.
Assays:
[1] = target: T1, endogenous VIP receptor (Homo sapiens, UniProt P41587); experiment: cAMP productivity in SUP-T1 cells; assay type: cell-based; conditions: 3-3000 nM, IBMX, 30 minutes
T1 construct: expressing an endogenous VIP receptor; host or cells: SUP-T1 human T-cell line
T1 sequence (P41587 24-438): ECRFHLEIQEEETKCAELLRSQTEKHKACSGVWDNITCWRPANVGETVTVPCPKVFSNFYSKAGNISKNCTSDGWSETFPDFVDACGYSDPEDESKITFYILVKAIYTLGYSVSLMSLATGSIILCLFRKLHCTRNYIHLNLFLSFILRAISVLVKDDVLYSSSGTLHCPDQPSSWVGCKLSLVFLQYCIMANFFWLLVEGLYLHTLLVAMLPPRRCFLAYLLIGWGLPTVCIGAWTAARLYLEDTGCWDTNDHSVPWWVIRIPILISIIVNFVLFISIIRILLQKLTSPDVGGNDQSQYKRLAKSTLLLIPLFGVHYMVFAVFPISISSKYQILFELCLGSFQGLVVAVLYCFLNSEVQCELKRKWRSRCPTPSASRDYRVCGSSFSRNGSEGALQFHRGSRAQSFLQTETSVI
Protocol: A productivity of cAMP was analyzed in vitro, in order to evaluate the activity intensity of the VIP peptide complexes showing the plasma stability in Experimental Example 4.
An intracellular cAMP productivity was evaluated using SUP-T1 cells which were derived from human T-cell, expressing an endogenous VIP receptor (purchased from ATCC). The SUP-T1 cells which were subjected to suspension culture for 48 or more hours were moved to a tube, and the cells were washed twice with a medium (RPMI-1640). After that, a medium including IBMX (3-isobutyl-1-methylxanthine), which was an inhibitor of a catabolic enzyme of the cAMP, was added thereto, and the mixture was incubated at 37° C. for 15 minutes. After centrifugation, the supernatant was removed, and an IBMX-containing medium including the VIP peptide complex was added thereto. The reaction was performed at 37° C. for 30 minutes. After the reaction, the tube was centrifuged, the supernatant was removed, and the cell lysate was added thereto. The mixture was incubated at 37° C. for 30 minutes to dissolve the cells, and the productivity was evaluated by the measurement of the cAMP. The cAMP measurement was performed using an enzyme-linked immunosorbent assay (ELISA) by chemiluminescence detection.
The activity intensity (%) of the VIP peptide complex was calculated according to the following formula.
Activity Intensity (%)=[{(the maximum amount of the cAMP produced in each VIP peptide complex)/(the maximum amount of the cAMP produced in native VIP)]×100

[2] = Plasma stability of VIP peptide complex (remaining rate in rat plasma); assay type: in vitro ADME, SD rats; conditions: VIP complexes, 37° C.; for remaining at 8 h, 0.5 μmol/L / remaining at 48 h, 0.5 μmol/L: SD; for remaining at 8 h, 0.5 μmol/L: read-out: Remaining rate in plasma after 8 hours (%); for remaining at 48 h, 0.5 μmol/L: read-out: Remaining rate in plasma after 48 hours; for Remaining rate in plasma after 8 hours (%) / Remaining rate in plasma after 48 hours: 0.5 μmol/L
Protocol: The plasma stability was evaluated in vitro, in order to inspect the biostability of the VIP peptide complex.
SD rats were anesthetized with diethyl ether, whole blood was collected, and a plasma fraction was separated therefrom. The VIP or VIP-peptide complex was added to the plasma so that the final concentration thereof was 0.5 μmol/L, and the mixture was incubated at 37° C. A sample was recovered after 0, 8 or 48 hours, and a remaining rate was evaluated by an HPLC/MS measurement of an amount of the VIP or VIP peptide complex.

| Compound | Activity Intensity (%), maximum amount of cAMP produced relative to native VIP [1] [%] | remaining at 8 h, 0.5 μmol/L [2] [%] | remaining at 48 h, 0.5 μmol/L [2] [%] | Remaining rate in plasma after 8 hours (%) [2] | Remaining rate in plasma after 48 hours [2] [%] |
| --- | --- | --- | --- | --- | --- |
| CC[C@H](C)[C@H](NC(=O)[C@H](CO)NC(=O)[C@H](CC(N)=O)NC(=O)[C@H](CC(C)C)NC(=O)[C@H](Cc1ccc(O)cc1)NC(=O)[C@H](CCCCN)NC(=O)[C@H](CCCCN)NC(=O)[C@@H](NC(=O)[C@H](C)NC(=O)[C@H](CCSC)NC(=O)[C@H](CCC(N)=O)NC(=O)[C@H](CCCCN)NC(=O)[C@H](CCCNC(=N)N)NC(=O)[C@H](CC(C)C)NC(=O)[C@H](CCCNC(=N)N)NC(=O)[C@@H](NC(=O)[C@H](Cc1ccc(O)cc1)NC(=O)[C@H](CC(N)=O)NC(=O)[C@H](CC(=O)O)NC(=O)[C@@H](NC(=O)[C@H](Cc1ccccc1)NC(=O)[C@@H](NC(=O)[C@H](C)NC(=O)[C@H](CC(=O)O)NC(=O)[C@H](CO)NC(=O)[C@@H](N)Cc1c[nH]cn1)C(C)C)[C@@H](C)O)[C@@H](C)O)C(C)C)C(=O)N[C@@H](CC(C)C)C(=O)N[C@@H](CC(N)=O)C(N)=O [Comparative Example 14, VIP(1-28)-NH2, reference compound] | 100 | 0 | 0 | completely decomposed |  |
| CC[C@H](C)[C@H](NC(=O)[C@H](CCC(=O)O)NC(=O)[C@H](CC(=O)O)NC(=O)[C@@H](NC(=O)[C@H](CC(C)C)NC(=O)[C@H](CC(N)=O)NC(=O)[C@H](CC(C)C)NC(=O)[C@@H](NC(=O)[C@H](CO)NC(=O)[C@H](CC(N)=O)NC(=O)[C@H](CC(C)C)NC(=O)[C@H](Cc1ccc(O)cc1)NC(=O)[C@H](CCCCN)NC(=O)[C@H](CCCCN)NC(=O)[C@@H](NC(=O)[C@H](C)NC(=O)[C@H](CCSC)NC(=O)[C@H](CCC(N)=O)NC(=O)[C@H](CCCCN)NC(=O)[C@H](CCCNC(=N)N)NC(=O)[C@H](CC(C)C)NC(=O)[C@H](CCCNC(=N)N)NC(=O)[C@@H](NC(=O)[C@H](Cc1ccc(O)cc1)NC(=O)[C@H](CC(N)=O)NC(=O)[C@H](CC(=O)O)NC(=O)[C@@H](NC(=O)[C@H](Cc1ccccc1)NC(=O)[C@@H](NC(=O)[C@H](C)NC(=O)[C@H](CC(=O)O)NC(=O)[C@H](CO)NC(=O)[C@@H](N)Cc1c[nH]cn1)C(C)C)[C@@H](C)O)[C@@H](C)O)C(C)C)[C@@H](C)CC)[C@@H](C)CC)C(=O)N[C@@H](CC(C)C)C(=O)N[C@@H](C)C(=O)N[C@@H](C)C(N)=O [Example 25, VIP(1-28)-GAm(37-44)-NH2] | 81 | 118 | 118 | not totally decomposed | 118 |
| HSDAVFTDNYTRLRKQMAVKKYLNSILNAKTVEGVKALIDEILAA-NH2 [Example 27, VIP(1-28)-GAm(28-44)-NH2] | 67 | 109 | 35 | not totally decomposed | 35 |
| HSDAVFTDNYTRLRKQMAVKKYLNSILNEGVKALIDEILAA-NH2 [Example 26, VIP(1-28)-GAm(32-44)-NH2] | 85 | 99 | 47 | not totally decomposed | 47 |

Source: patent publication US20130123460A1, “PEPTIDE FOR IMPROVING BIOSTABILITY OF BIOACTIVE SUBSTANCE, AND BIOACTIVE SUBSTANCE HAVING IMPROVED BIOSTABILITY” (priority 2010, published 2013)
